For two compounds, EC50 results are on record in article PMC4104029, “Mechanism of Action of Compound-13: An α1-Selective Small Molecule Activator of AMPK” (Chemistry & Biology, 2014).

This assay concerns the target T1, AMPK α2/α1 LOOP β1γ1 (Homo sapiens, UniProt P54619+P54646, A386E/A396G/C382H/D376E/DEL348-348/DEL355-359/G349D/G362L/I374V/K364R/K379R/L363T/L395Q/M352L/M370V/P360H/P361H/P372F/P383T/P392S/S377T/S394H/T389P/T390Q).
T1 construct: 6×His (N); made in house; host or cells: E. coli (tricistronic pET15-b construct)
Kind of assay: Chimeric AMPK complex activation assay. It is filed as biochemical. The conditions noted are these: complex expressed in E. coli; read-out: EC50, allosteric activation. From the text: Figure 3 Regulatory Elements within the α-Linker Determine the Isoform Specificity of C2 (A) Diagram illustrating the domain organization of the AMPKα subunit with a global pairwise alignment of a section of the α-linker of human AMPKα1 (Q13131) and AMPKα2 (P54646). Regulatory elements in the α-linker are highlighted, including the α-hook as originally defined by [Xiao et al. (2011)] (pink) and the reassigned sequence (also known as α-RIM2) shaded in orange. The secondary structure for α1 is derived from PDB ID 2Y94. The table summarizes the sequences of the α1/α2 chimeras produced to examine the role of various structural elements in the activation of α2β1γ1 complexes by C2. (B–E) Human AMPKα1/α2 chimeras (defined in A) were generated as complexes with β1γ1 in E. coli. Purified active complexes were assayed for the activation of phosphotransferase activity by AMP and C2, as described in Figure 1. Results (line graphs) are expressed as the fold increase in activity relative to reactions performed in the absence of compound and represent the mean ± SD of three independent experiments. Complexes were also assayed for protection against dephosphorylation and inactivation by PP2Cα, as described in Figures 2C and 2D. Results (bar charts) are expressed as the mean (percentage of control) ± SD of three independent experiments. Representative blots of pT172 and total AMPKα are shown below the bar charts. TEXT PRINTED IN THE PICTURE: (B) C2: AMPK211 - α2/α1 CAT: EC50: ND | (B) AMP: AMPK211 - α2/α1 CAT: EC50: 1.3 ± 0.2 μM | (C) C2: AMPK211 - α2/α1 REG: EC50: 0.009 ± 0.0006 μM | (C) AMP: AMPK211 - α2/α1 REG: EC50: 3.1 ± 0.3 μM | (D) C2: AMPK211 - α2/α1 HOOK: EC50: ND | (D) AMP: AMPK211 - α2/α1 HOOK: EC50: 1.4 ± 0.2 μM | (E) C2: AMPK211 + α2/α1 LOOP: EC50: 0.013 ± 0.001 μM | (E) AMP: AMPK211 + α2/α1 LOOP: EC50: 2.7 ± 0.3 μM […]
AMPK phosphotransferase activity was assayed in reactions (50 μl) containing 50 mM HEPES, pH 7.4, 10 mM MgCl2, 0.1 mM EGTA, 1 mM DTT, 0.01% BRIJ-35, 100 μM [γ-^32P]ATP (∼250 CPM⋅pmol^−1) and 200 μM AMARA (AMARAASAAALARRR). Reactions were started by the addition of AMPK (5 mU), incubated for 20 min at 30°C and quenched by spotting onto P81 and immersion in 75 mM H3PO4. Washed filters were dried and [^32P] incorporation determined by Cherenkov counting. AMPK activity in cell extracts was determined by immunoprecipitation with AMPKα1 or AMPKα2 antibodies from 50 μg material, as previously described ([Hunter et al., 2011]). […]

T1 sequence (Q9Y478 2-270, stated change not applied): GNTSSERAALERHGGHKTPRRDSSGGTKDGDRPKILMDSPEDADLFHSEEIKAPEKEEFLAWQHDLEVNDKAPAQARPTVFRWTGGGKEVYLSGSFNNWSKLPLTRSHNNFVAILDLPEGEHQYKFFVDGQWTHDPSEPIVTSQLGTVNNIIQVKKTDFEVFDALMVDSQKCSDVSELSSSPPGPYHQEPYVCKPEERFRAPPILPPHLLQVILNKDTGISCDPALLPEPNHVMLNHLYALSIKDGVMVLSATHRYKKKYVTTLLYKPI
T1 sequence (P54646 other isoform, or with tags, fused parts or gaps with the stated changes): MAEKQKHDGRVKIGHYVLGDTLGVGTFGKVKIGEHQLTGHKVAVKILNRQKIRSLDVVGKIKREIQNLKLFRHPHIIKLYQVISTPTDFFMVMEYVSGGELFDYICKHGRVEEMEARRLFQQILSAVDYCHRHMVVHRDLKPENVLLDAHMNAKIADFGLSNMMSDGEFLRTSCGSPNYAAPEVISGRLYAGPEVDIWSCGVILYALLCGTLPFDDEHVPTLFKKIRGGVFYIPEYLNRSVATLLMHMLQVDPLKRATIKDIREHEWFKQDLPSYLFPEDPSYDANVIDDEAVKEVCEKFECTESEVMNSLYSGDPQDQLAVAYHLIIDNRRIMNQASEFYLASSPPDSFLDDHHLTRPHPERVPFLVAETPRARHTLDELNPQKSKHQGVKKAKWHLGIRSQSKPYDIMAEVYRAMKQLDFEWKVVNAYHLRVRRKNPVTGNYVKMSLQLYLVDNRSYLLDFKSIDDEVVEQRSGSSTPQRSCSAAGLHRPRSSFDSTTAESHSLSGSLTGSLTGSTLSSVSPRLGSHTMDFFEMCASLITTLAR
T1 sequence (P54619 whole entry, stated change not applied): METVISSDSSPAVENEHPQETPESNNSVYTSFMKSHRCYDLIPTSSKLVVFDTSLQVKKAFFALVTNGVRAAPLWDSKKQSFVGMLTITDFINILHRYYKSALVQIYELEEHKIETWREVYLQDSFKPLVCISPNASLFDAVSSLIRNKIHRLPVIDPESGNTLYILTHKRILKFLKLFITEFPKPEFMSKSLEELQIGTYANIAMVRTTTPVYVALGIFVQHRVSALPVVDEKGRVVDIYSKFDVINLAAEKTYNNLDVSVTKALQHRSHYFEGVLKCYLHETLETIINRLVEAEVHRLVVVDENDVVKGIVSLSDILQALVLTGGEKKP

Regarding `Nc1ncnc2c1ncn2[C@@H]1O[C@H](COP(=O)(O)O)[C@@H](O)[C@H]1O` [AMP, reference compound], the EC50 was determined as 2700 ± 300 nM.
Next, `O=P(O)(O)c1ccc(-c2cc(O)on2)o1` [Compound C2, 5-(5-hydroxyl-isoxazol-3-yl)-furan-2-phosphonic acid]: 13 ± 1 nM.

By EC50 is commonly meant the concentration needed to bring the measured effect to its halfway point.
